Measurements published in the NIST ThermoML archive (doi:10.1021/je100022w).
± gives the expanded uncertainty stated by the source.

Settings: Crystal 2; DSC

Triple point temperature: 449.15 ± 1 K
SMILES: COC(=O)[C@H](c1ccccc1Cl)N1CCc2sccc2C1.O=S(=O)(O)O [(S)-(+)-Clopidogrel hydrogen sulfate]
